Test results: patent US20260262643A1, “HERBICIDAL BENZOXAZINES” (FMC CORPORATION, priority 2022, published 2026)

Key:
ryegrass, Italian [1] = assay: Test C postemergence; type: in vivo, Lolium multiflorum; conditions: 10 days, 0 to 100 scale (0 no effect, 100 complete control)
Outline: (§1)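 Visual injury ratings on a 0–100 scale (100 = complete control) were made against untreated controls 10 days after treatment in the greenhouse. Compounds, formulated with surfactant in non-phytotoxic solvent, were sprayed on soil preemergence or onto one- to two-leaf plants 2–10 cm tall postemergence.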

barnyardgrass [2] = assay: Test C postemergence; type: in vivo, Echinochloa crusgalli; conditions: 10 days, 0 to 100 scale (0 no effect, 100 complete control)
Outline: as §1

wheat [3] = assay: Test C postemergence; type: in vivo, Triticum aestivum; conditions: 10 days, 0 to 100 scale (0 no effect, 100 complete control)
Outline: as §1

horseweed = assay: Test C postemergence; type: in vivo, Erigeron canadensis; conditions: 10 days, 0 to 100 scale (0 no effect, 100 complete control)
Outline: as §1

kochia [4] = assay: Test C preemergence; type: in vivo, Bassia scoparia
Outline: as §1

oat, wild [5] = assay: Test C preemergence; type: in vivo, Avena fatua
Outline: as §1

corn [6] = assay: Test C postemergence; type: in vivo, Zea mays; conditions: 10 days, 0 to 100 scale (0 no effect, 100 complete control)
Outline: as §1

soybean [7] = assay: Test C postemergence; type: in vivo, Glycine max; conditions: 10 days, 0 to 100 scale (0 no effect, 100 complete control)
Outline: as §1

ducksalad = assay: Test D flooded paddy test; type: in vivo, Heteranthera limosa; conditions: 250 g ai/ha, applied to paddy water, visual rating after 13 to 14 days, scale 0 to 100 (0 no effect, 100 complete control)
Outline: (§2)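 Visual ratings from 0, meaning no effect, to 100, meaning complete control, were assigned against untreated controls 13 to 14 days after compounds were added to the floodwater of pots kept 3 cm deep, with plants at the 2-leaf stage.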

barnyardgrass [8] = assay: Test D flooded paddy test; type: in vivo, Echinochloa crus-galli; conditions: 250 g ai/ha, applied to paddy water, visual rating after 13 to 14 days, scale 0 to 100 (0 no effect, 100 complete control)
Outline: as §2

oat, wild [9] = assay: Test C postemergence; type: in vivo, Avena fatua; conditions: 10 days, 0 to 100 scale (0 no effect, 100 complete control)
Outline: as §1

wheat [10] = assay: Test C preemergence; type: in vivo, Triticum aestivum
Outline: as §1

pigweed, palmer [11] = assay: Test C preemergence; type: in vivo, Amaranthus palmeri
Outline: as §1

galium = assay: Test C postemergence; type: in vivo, Galium aparine; conditions: 10 days, 0 to 100 scale (0 no effect, 100 complete control)
Outline: as §1

ragweed [12] = assay: Test C preemergence; type: in vivo, Ambrosia artemisiifolia
Outline: as §1

blackgrass [13] = assay: Test C postemergence; type: in vivo, Alopecurus myosuroides; conditions: 10 days, 0 to 100 scale (0 no effect, 100 complete control)
Outline: as §1

blackgrass [14] = assay: Test C preemergence; type: in vivo, Alopecurus myosuroides
Outline: as §1

rice = assay: Test D flooded paddy test; type: in vivo, Oryza sativa; conditions: 250 g ai/ha, applied to paddy water, visual rating after 13 to 14 days, scale 0 to 100 (0 no effect, 100 complete control)
Outline: as §2

ragweed [15] = assay: Test C postemergence; type: in vivo, Ambrosia artemisiifolia; conditions: 10 days, 0 to 100 scale (0 no effect, 100 complete control)
Outline: as §1

soybean [16] = assay: Test C preemergence; type: in vivo, Glycine max
Outline: as §1

barnyardgrass [17] = assay: Test C preemergence; type: in vivo, Echinochloa crusgalli
Outline: as §1

foxtail, giant [18] = assay: Test C postemergence; type: in vivo, Setaria faberi; conditions: 10 days, 0 to 100 scale (0 no effect, 100 complete control)
Outline: as §1

ryegrass, Italian [19] = assay: Test C preemergence; type: in vivo, Lolium multiflorum
Outline: as §1

pigweed, palmer [20] = assay: Test C postemergence; type: in vivo, Amaranthus palmeri; conditions: 10 days, 0 to 100 scale (0 no effect, 100 complete control)
Outline: as §1

corn [21] = assay: Test C preemergence; type: in vivo, Zea mays
Outline: as §1

kochia [22] = assay: Test C postemergence; type: in vivo, Bassia scoparia; conditions: 10 days, 0 to 100 scale (0 no effect, 100 complete control)
Outline: as §1

sedge, umbrella = assay: Test D flooded paddy test; type: in vivo, Cyperus difformis; conditions: 250 g ai/ha, applied to paddy water, visual rating after 13 to 14 days, scale 0 to 100 (0 no effect, 100 complete control)
Outline: as §2

foxtail, giant [23] = assay: Test C preemergence; type: in vivo, Setaria faberi
Outline: as §1

[24] = 500 g ai/ha, preemergence, 0 to 100 scale (0 no effect, 100 complete control)
[25] = Preemergence, 125 g ai/ha, 0 to 100 scale, 0 no effect, 100 complete control

With CCc1ncn(-c2cc(C(=O)N3CC(C(F)(F)F)Oc4c(C)cccc43)ccn2)n1 (stereo not shown) [Compound 318] the “Plant response rating, Ryegrass, Italian” value (ryegrass, Italian [1]; 500 g ai/ha, postemergence) was 100, the “Plant response rating, Ryegrass, Italian” value (ryegrass, Italian [1]; Postemergence, 125 g ai/ha) was 60 and the “Plant response rating, Barnyardgrass” value (barnyardgrass [2]; 500 g ai/ha, postemergence) was 70. The “Plant response rating, Barnyardgrass” value (barnyardgrass [2]; Postemergence, 125 g ai/ha) was 50, the “Plant response rating, Wheat” value (wheat [3]; 500 g ai/ha, postemergence) was 50 and the “Plant response rating, Wheat” value (wheat [3]; Postemergence, 125 g ai/ha) was 40. For the same compound, the “Plant response rating, Horseweed” value (horseweed; 500 g ai/ha, postemergence) was 20, the “Plant response rating, Horseweed” value (horseweed; Postemergence, 125 g ai/ha) was 0 and the “Kochia plant response rating” value (kochia [4]; [24]) was 90. For the same compound, the “Plant response rating, Kochia” value (kochia [4]; [25]) was 70, the “Oat, Wild plant response rating” value (oat, wild [5]; [24]) was 90 and the “Plant response rating, Oat, Wild” value (oat, wild [5]; [25]) was 50. The “Plant response rating, Corn” value (corn [6]; 500 g ai/ha, postemergence) was 80, the “Plant response rating, Corn” value (corn [6]; Postemergence, 125 g ai/ha) was 70 and the “Plant response rating, Soybean” value (soybean [7]; 500 g ai/ha, postemergence) was 100. For the same compound, the “Plant response rating, Soybean” value (soybean [7]; Postemergence, 125 g ai/ha) was 100, the “Plant response rating, Ducksalad (Flood)” value (ducksalad) was 10 and the “Plant response rating, Barnyardgrass (Flood)” value (barnyardgrass [8]) was 45. For the same compound, the “Plant response rating, Oat, Wild” value (oat, wild [9]; 500 g ai/ha, postemergence) was 80, the “Plant response rating, Oat, Wild” value (oat, wild [9]; Postemergence, 125 g ai/ha) was 40 and the “Wheat plant response rating” value (wheat [10]; [24]) was 90. For the same compound, the “Plant response rating, Wheat” value (wheat [10]; [25]) was 30, the “Pigweed, Palmer plant response rating” value (pigweed, palmer [11]; [24]) was 90 and the “Plant response rating, Pigweed, Palmer” value (pigweed, palmer [11]; [25]) was 50. For the same compound, the “Plant response rating, Galium” value (galium; 500 g ai/ha, postemergence) was 100, the “Plant response rating, Galium” value (galium; Postemergence, 125 g ai/ha) was 100 and the “Ragweed plant response rating” value (ragweed [12]; [24]) was 40. The “Plant response rating, Ragweed” value (ragweed [12]; [25]) was 0, the “Plant response rating, Blackgrass” value (blackgrass [13]; 500 g ai/ha, postemergence) was 90 and the “Plant response rating, Blackgrass” value (blackgrass [13]; Postemergence, 125 g ai/ha) was 60. The “Blackgrass plant response rating” value (blackgrass [14]; [24]) was 90, the “Plant response rating, Blackgrass” value (blackgrass [14]; [25]) was 80 and the “Plant response rating, Rice (Flood)” value (rice) was 15. For the same compound, the “Plant response rating, Ragweed” value (ragweed [15]; 500 g ai/ha, postemergence) was 30, the “Plant response rating, Ragweed” value (ragweed [15]; Postemergence, 125 g ai/ha) was 0 and the “Soybean plant response rating” value (soybean [16]; [24]) was 100. The “Plant response rating, Soybean” value (soybean [16]; [25]) was 30, the “Barnyardgrass plant response rating” value (barnyardgrass [17]; [24]) was 100 and the “Plant response rating, Barnyardgrass” value (barnyardgrass [17]; [25]) was 90. For the same compound, the “Plant response rating, Foxtail, Giant” value (foxtail, giant [18]; 500 g ai/ha, postemergence) was 90, the “Plant response rating, Foxtail, Giant” value (foxtail, giant [18]; Postemergence, 125 g ai/ha) was 90 and the “Ryegrass, Italian plant response rating” value (ryegrass, Italian [19]; [24]) was 100. For the same compound, the “Plant response rating, Ryegrass, Italian” value (ryegrass, Italian [19]; [25]) was 90, the “Plant response rating, Pigweed, Palmer” value (pigweed, palmer [20]; 500 g ai/ha, postemergence) was 60 and the “Plant response rating, Pigweed, Palmer” value (pigweed, palmer [20]; Postemergence, 125 g ai/ha) was 20. The “Corn plant response rating” value (corn [21]; [24]) was 80, the “Plant response rating, Corn” value (corn [21]; [25]) was 30 and the “Plant response rating, Kochia” value (kochia [22]; 500 g ai/ha, postemergence) was 80. For the same compound, the “Plant response rating, Kochia” value (kochia [22]; Postemergence, 125 g ai/ha) was 50, the “Plant response rating, Sedge, Umbrella (Flood)” value (sedge, umbrella) was 45 and the “Foxtail, Giant plant response rating” value (foxtail, giant [23]; [24]) was 100. The “Plant response rating, Foxtail, Giant” value (foxtail, giant [23]; [25]) was 100.
